Source: patent publication US9771592B2, “Methods and compositions for treating or preventing pruritis” (The Johns Hopkins University, priority 2008, dated 2017)
“And” between values parts separate entries of the source, which are not always exact repeats. Equal entries are not always repeated. Where two headings read alike, the source gives them in different places.

Tests used:
rat MrgprC = biological target: T1, rat MrgprC (Rattus norvegicus, UniProt Q8R4G1); experiment: Rescue: Mrgpr-clusterΔ-/- DRG neurons electroporated with rat Mrgpr, calcium imaging
T1 sequence (Q8R4G1 1-323): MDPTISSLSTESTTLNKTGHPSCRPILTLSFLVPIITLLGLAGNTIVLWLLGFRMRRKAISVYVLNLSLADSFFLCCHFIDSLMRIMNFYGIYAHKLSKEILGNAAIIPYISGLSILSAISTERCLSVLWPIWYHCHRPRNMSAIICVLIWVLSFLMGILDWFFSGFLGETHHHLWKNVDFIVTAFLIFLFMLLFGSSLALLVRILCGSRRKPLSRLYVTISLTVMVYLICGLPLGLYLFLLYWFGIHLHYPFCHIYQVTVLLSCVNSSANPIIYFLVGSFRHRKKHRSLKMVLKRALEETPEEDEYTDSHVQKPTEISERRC

mice = experiment: Scratching behavior after pruritogen injection in mice; type: in vivo, mouse; settings: for total number of scratching bouts: first 30 min after CQ injection (200 μg/50 μl, 8 mM); for scratching in Mrgpr-clusterΔ-/- mice compared with WT: 30 min, histamine 10 μmol, compound 48/80 100 μg/50 μl, CQ 200 μg/50 μl, BAM8-22 50 μl of 1 mM
Description: Kuraishi et al., (1995). […] F. (2007) Nature 448, 700-703).

MrgprX1 [1] = biological target: T2, MrgprX1 (Homo sapiens, UniProt Q96LB2); experiment: Calcium imaging of HEK293 cells transfected with Mrgpr-GFP constructs; type: cell-based; settings: for activation of MrgprX1 (increased [Ca2+]i): BAM8-22 2 μM
T2 sequence (Q96LB2 whole entry): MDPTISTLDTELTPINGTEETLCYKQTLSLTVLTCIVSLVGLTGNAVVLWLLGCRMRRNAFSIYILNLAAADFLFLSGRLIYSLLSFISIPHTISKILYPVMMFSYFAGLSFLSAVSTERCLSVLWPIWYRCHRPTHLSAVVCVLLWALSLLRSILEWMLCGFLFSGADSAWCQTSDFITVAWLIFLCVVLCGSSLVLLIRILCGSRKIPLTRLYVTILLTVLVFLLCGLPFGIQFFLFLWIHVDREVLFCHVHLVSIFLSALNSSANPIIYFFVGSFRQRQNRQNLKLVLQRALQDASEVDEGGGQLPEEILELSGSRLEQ
Experimental: (§1) The human Mrgpr family (i.e. MrgprXs) is much smaller than the murine family.
(§2) Serotonin also has a bicyclic structure. […] Quinine is another drug used to treat malaria and its side effects also include itch. However, it is unclear if quinine-induced itch is an allergic response.
(§3) HEK293 cells were cultured in growth medium consisted of 90% DMEM, 10% fetal bovine serum, 100 U/ml penicillin, and 100 μg/ml Streptomycin (Invitrogen) at 37° C. in the presence of […] and 5% CO2. HEK293 cells were transfected with Mrgpr-expression constructs using Lipofectamine 2000 (Invitrogen) according to the manufacturer's protocol.

DRG neurons [2] = experiment: Whole-cell current-clamp recording of action potentials in DRG neurons; type: cell-based, mouse; settings: CQ 1 mM
Description: To determine whether CQ can directly induce action potentials (APs) in dissociated DRG neurons, using whole-cell patch clamp recording. […] These studies provide strong evidence that CQ can directly excite a small subpopulation of sensory neurons in DRG and that Mrgprs are required for this effect. Similar to the mouse results, CQ induces robust activation in a subset of rat DRG neurons as determined by both an increase in [Ca^2+]i and generation of APs (FIG. 4).
Patch pipettes had resistances of 2-4 MΩ. […] All experiments were performed at room temperature ([…]).

[3] = cited from earlier work
MrgprA1 [4] = biological target: T3, MrgprA1 (Mus musculus, UniProt Q91WW5); experiment: Calcium imaging of HEK293 cells transfected with Mrgpr-GFP constructs; type: cell-based; set-up: expressed in transfected cells; settings: CQ 1 mM, FMRF 2 μM
T3 sequence (Q91WW5 1-304): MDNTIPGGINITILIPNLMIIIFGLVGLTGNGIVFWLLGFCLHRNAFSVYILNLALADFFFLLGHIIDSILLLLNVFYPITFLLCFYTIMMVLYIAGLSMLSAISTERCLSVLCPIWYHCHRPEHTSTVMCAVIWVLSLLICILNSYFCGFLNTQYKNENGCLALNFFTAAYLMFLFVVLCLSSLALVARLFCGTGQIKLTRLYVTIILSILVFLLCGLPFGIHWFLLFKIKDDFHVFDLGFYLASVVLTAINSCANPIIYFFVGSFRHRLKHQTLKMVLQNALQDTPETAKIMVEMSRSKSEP
Description: (§4) Each of the twelve Mrgprs that were deleted in Mrgpr-clusterΔ^−/− mice were cloned into a mammalian expression vector (FIG. 1A), and transfected individually into human embryonic kidney (HEK) 293 cells. By fusing green fluorescent protein (GFP) to the C-termini of the Mrgpr coding sequences, both transfected cells and the proper membrane localization of the receptors was visualized. […] Increased [Ca^2+]i resulting from activation of the receptors was monitored by calcium imaging.
(§5) HEK293 cells were transfected with Mrgpr-expression constructs using Lipofectamine 2000 (Invitrogen) according to the manufacturer's protocol.

MrgprA4 = biological target: T4, MrgprA4 (Mus musculus, UniProt Q91WW2); experiment: as above; type: cell-based; settings: NPFF 2 μM
T4 construct: expressed in transfected cells; host or cells: HEK293
T4 sequence (Q91WW2 1-313): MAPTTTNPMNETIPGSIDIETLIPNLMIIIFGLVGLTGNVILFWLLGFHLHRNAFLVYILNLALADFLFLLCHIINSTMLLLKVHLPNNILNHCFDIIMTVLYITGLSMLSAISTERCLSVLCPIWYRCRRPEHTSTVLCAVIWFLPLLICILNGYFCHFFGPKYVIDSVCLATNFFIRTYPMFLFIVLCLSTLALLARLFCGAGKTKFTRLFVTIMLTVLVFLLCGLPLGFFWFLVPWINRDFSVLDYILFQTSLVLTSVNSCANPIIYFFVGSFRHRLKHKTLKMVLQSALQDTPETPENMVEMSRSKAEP
Description: as §4, §5

MrgprC11 = biological target: T5, MrgprC11 (Mus musculus, UniProt Q8CIP3); experiment: as above; type: cell-based; settings: BAM8-22 2 μM
T5 construct: expressed in transfected cells; host or cells: HEK293
T5 sequence (Q8CIP3 1-322): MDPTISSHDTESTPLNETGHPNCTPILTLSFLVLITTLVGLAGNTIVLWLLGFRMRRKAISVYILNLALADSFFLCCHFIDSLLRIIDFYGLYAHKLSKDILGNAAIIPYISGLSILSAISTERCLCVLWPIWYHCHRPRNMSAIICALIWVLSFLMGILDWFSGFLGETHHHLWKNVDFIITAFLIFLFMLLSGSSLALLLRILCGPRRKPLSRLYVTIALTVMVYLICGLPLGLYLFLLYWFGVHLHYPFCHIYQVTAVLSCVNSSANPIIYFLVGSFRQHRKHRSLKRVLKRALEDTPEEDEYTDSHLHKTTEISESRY
Description: as §4, §5

MrgprX3 = biological target: T6, MrgprX3 (Homo sapiens, UniProt Q96LB0); experiment: Calcium imaging of transfected HEK293 cells; type: cell-based
T6 construct: expressed in transfected cells; host or cells: HEK293
T6 sequence (Q96LB0 whole entry): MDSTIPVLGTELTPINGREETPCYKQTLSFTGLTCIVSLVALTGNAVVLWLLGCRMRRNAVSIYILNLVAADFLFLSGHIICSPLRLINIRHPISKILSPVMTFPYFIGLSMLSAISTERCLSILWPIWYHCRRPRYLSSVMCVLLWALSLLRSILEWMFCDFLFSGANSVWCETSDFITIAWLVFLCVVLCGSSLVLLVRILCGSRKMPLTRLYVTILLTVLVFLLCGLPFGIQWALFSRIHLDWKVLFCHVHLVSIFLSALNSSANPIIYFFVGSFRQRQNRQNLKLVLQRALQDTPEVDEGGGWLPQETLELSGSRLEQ
Description: as §1

MrgprX2 = biological target: T7, MrgprX2 (Homo sapiens, UniProt Q96LB1); experiment: Calcium imaging of transfected HEK293 cells; type: cell-based
T7 construct: expressed in transfected cells; host or cells: HEK293
T7 sequence (Q96LB1 1-330): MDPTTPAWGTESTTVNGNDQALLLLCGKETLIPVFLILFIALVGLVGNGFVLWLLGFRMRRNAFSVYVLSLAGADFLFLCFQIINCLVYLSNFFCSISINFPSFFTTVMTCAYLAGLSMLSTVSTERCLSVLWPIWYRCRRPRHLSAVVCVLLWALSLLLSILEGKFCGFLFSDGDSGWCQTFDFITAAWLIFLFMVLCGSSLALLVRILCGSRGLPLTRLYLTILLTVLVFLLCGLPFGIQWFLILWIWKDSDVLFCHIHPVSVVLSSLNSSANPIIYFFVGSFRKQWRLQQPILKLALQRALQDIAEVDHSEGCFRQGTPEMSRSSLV
Description: as §1

DRG neurons [5] = experiment: Calcium imaging of cultured dissociated DRG neurons; type: cell-based, mouse; settings: for DRG neurons responding: Mrgpr-clusterΔ-/- mice; for effect on CQ-induced [Ca2+]i increase: WT DRG neurons
Experimental: Dorsal root ganglia from all spinal levels of 4-week old mice or rats were collected in cold DH10 (90% DMEM/F-12, 10% FBS, 100 U/ml penicillin, and 100 μg/ml Streptomycin, Gibco) and treated with enzyme solution (5 mg/ml Dispase, 1 mg/ml Collagenase Type I in HPBS without Ca^++ and Mg^++, Gibco) at 37° C. Following trituration and centrifugation, cells were resuspended in DH10, plated on glass cover slips coated with poly-D-lysine (0.5 mg/ml, Stoughton, Mass.) and laminin (10 μg/ml, Invitrogen), cultured in an incubator (95% O2 and 5% CO2) at 37° C. and used within 24 hours.

MrgprA3 [6] = biological target: T8, MrgprA3 (Mus musculus, UniProt Q91WW3); experiment: Calcium imaging of HEK293 cells transfected with Mrgpr-GFP constructs; type: cell-based; set-up: expressed in transfected cells; host or cells: HEK293
T8 sequence (Q91WW3 1-302): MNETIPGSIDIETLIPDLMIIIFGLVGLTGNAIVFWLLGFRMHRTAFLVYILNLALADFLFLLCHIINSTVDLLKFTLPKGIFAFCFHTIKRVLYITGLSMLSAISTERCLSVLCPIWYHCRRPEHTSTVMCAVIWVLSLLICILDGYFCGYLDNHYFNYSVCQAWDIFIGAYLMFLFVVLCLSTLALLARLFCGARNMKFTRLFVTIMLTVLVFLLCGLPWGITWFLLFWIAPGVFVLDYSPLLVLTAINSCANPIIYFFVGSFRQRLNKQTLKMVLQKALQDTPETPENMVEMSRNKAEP
Description: as §4, §2, §3

MrgprA3 [7] = biological target: T8, MrgprA3; experiment: Rescue: Mrgpr-clusterΔ-/- DRG neurons electroporated with Mrgpr construct; type: cell-based
Experimental: (§6) To determine whether MrgprA3 or MrgprX1 can rescue the phenotypes of DRG neurons from Mrgpr-clusterΔ^−/− mice, the Mrgpr expression constructs used in the heterologous studies were electroporated into dissociated adult DRG neurons from these mice. After 24 hour in culture, expression and membrane localization of the transfected Mrgprs in the mutant neurons could be readily visualized by GFP (FIG. 8G).

MrgprX1 [8] = biological target: T2, MrgprX1; experiment: as above; type: cell-based, mouse
Experimental: as §6

[9] = cited from earlier work; remark: listed apart in the source
MrgprA1 [10] = biological target: T3, MrgprA1; experiment: Rescue: Mrgpr-clusterΔ-/- DRG neurons electroporated with Mrgpr construct; type: cell-based; set-up: expressed in transfected cells; host or cells: dissociated adult DRG neurons of Mrgpr-cluster-deleted mice
Experimental: as §6

rats = experiment: Scratching behavior after intradermal injection in rats; settings: 500 μg/50 μl, first 30 min
histamine H1 receptor = histamine H1 receptor (Homo sapiens, UniProt P35367); settings: HEK293 cells; histamine 50 μM
Chain of histamine H1 receptor (P35367 whole entry, species assumed): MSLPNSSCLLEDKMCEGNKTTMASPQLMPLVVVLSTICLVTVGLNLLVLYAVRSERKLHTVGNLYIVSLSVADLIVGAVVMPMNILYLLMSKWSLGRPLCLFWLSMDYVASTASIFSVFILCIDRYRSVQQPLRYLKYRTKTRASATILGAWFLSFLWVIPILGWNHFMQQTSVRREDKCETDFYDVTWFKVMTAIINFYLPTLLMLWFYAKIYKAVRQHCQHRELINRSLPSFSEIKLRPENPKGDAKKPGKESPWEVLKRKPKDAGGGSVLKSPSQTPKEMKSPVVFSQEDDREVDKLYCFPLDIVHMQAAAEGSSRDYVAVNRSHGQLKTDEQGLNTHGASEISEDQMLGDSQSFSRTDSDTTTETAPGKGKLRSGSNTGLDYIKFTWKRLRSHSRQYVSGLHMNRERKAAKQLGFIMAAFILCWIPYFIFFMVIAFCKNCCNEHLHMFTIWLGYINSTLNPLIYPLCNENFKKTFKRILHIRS
Description: as §4, §3

## CCN(CC)CCCC(C)Nc1ccnc2cc(Cl)ccc12 (stereo not shown) [CQ, Chloroquine]
Rat MrgprC
  response of rat MrgprC-electroporated Mrgpr-deficient neurons: did not
mice; Mrgpr-clusterΔ-/- (KO) mice
  occurrence of the first scratching behavior: 280.5 ± 35.0 s
mice; Mrgpr-clusterΔ-/- mice
  total number of scratching bouts: 104±13
mice; WT mice
  occurrence of the first scratching behavior: 57.8 ± 25.4 s
  time at which scratching peaked: ≤ 15 min
  total number of scratching bouts: 278±21
mice; WT mice, typical
  first bout observed after injection: 1 to 2 min
MrgprX1 [1]
  activation of MrgprX1 (increased [Ca2+]i): responded
MrgprX1 [1]; dose-response, calcium imaging
  EC50: 297.7 ± 2.1 µM
DRG neurons [2]; Mrgpr-clusterΔ-/- mice
  neurons showing any response: none of 11
DRG neurons [2]; WT DRG
  action potentials in CQ-sensitive neurons: displayed a train of APs
[3]; African patients
  patients refusing further treatment because of unbearable itch: ~30%
[3]; black Africans
  incidence of itch as side effect: up to 70%
MrgprA1 [4]
  response of MrgprA1-transfected cells (increased [Ca2+]i): fewer than half of MrgprA1-tranfected cells responded
MrgprA4
  response of MrgprA4-expressing cells: insensitive
MrgprC11
  response of MrgprC11-expressing cells: failed to respond
MrgprX3
  response of MrgprX3-expressing cells: completely insensitive
MrgprX2
  response of MrgprX2-expressing cells: completely insensitive
DRG neurons [5]
  DRG neurons responding: none of the neurons
DRG neurons [5]; WT mice, CQ 1 mM, BAM8-22 2 μM
  percentage of DRG neurons responding with increased [Ca2+]i: ~4.4% and 4-5%
DRG neurons [5]; WT neurons
  reduction of calcium responses on sequential application: ~20%
MrgprA3 [6]
  activation of MrgprA3 (increased [Ca2+]i): strong response
MrgprA3 [6]; dose-response, calcium imaging
  EC50: 27.6 ± 2.03 µM
MrgprA3 [7]
  [Ca2+]i response of MrgprA3-expressing mutant neurons: showed increased [Ca^2+]i
  action potentials in MrgprA3-expressing mutant neurons: generated numerous APs
MrgprX1 [8]
  MrgprX1-electroporated GFP-positive neurons generating a train of APs: 5 out of 7
  [Ca2+]i response of MrgprX1-electroporated mutant neurons: sensitivity
[9]; plasma
  concentration in patient plasma: micromolar range
[9]; skin
  concentration reached in skin and other pigmented tissues: high micromolar to millimolar concentrations
MrgprA1 [10]
  MrgprA1-electroporated neurons eliciting a few APs: 3 out of 7
  [Ca2+]i response of MrgprA1-electroporated mutant neurons: only a small portion responded
rats
  scratching responses: evoked profound scratching responses

## O=C(O)CN(CCOCCOCCN(CC(=O)O)CC(=O)O)CC(=O)O [EGTA]
DRG neurons [5]
  effect on CQ-induced [Ca2+]i increase: almost completely blocked

## N.N.N.N.N.N.N.N.N.N.N.N.N.N.[Cl-].[Cl-].[Cl-].[Cl-].[Cl-].[Cl-].[O-2].[O-2].[Ru+3].[Ru+3].[Ru+4] [Ruthenium red]
DRG neurons [5]
  effect on CQ-induced [Ca2+]i increase: severely attenuated

## NCCc1c[nH]c2ccc(O)cc12 [Serotonin]
MrgprA3 [6]; 100 μM
  activation of MrgprA3: failed to activate

## NCCc1c[nH]cn1 [histamine]
mice
  scratching in Mrgpr-clusterΔ-/- mice compared with WT: No significant difference
Histamine H1 receptor
  response of histamine H1 receptor-expressing cells: strong response
DRG neurons [5]; histamine 50 μM
  percentage of DRG neurons responding, WT versus mutant cultures: identical
MrgprA3 [6]
  activation of MrgprA3 (increased [Ca2+]i): did not respond

## C=C[C@H]1C[N@@]2CC[C@H]1C[C@H]2[C@H](O)c1ccnc2ccc(OC)cc12 [quinine]
MrgprA3 [6]
  activation of MrgprA3 (increased [Ca2+]i): weakly activates

## c1ccc2ncccc2c1 [quinoline]
mice; both WT and mutant mice
  scratching behavior evoked: did not evoke any scratching behavior
MrgprX1 [1]
  activation of MrgprX1 (increased [Ca2+]i): completely failed to activate
MrgprA3 [6]
  activation of MrgprA3 (increased [Ca2+]i): completely failed to activate
rats
  scratching responses: did not

## BAM8-22: bovine adrenal medulla peptide; MrgprC11-specific agonist (VGRPEWWMDYQKRYG)
Rat MrgprC; BAMS-22 10 μM
  response of rat MrgprC-electroporated Mrgpr-deficient neurons: responded
mice
  scratching in Mrgpr-clusterΔ-/- mice compared with WT: dramatic reduction
mice; WT mice, intradermal injection, 50 μl of 1 mM
  scratching behavior evoked: induced strong scratching behavior
MrgprX1 [1]
  activation of MrgprX1 (increased [Ca2+]i): responded
MrgprC11
  response of MrgprC11-expressing cells: responded
DRG neurons [5]
  DRG neurons responding: no DRG neurons
MrgprA3 [6]
  activation of MrgprA3 (increased [Ca2+]i): did not respond
MrgprX1 [8]
  [Ca2+]i response of MrgprX1-electroporated mutant neurons: sensitivity

## FMRF: molluscan FMRFamide, peptide agonist of MrgprA1
MrgprA1 [4]
  response of MrgprA1-transfected cells (increased [Ca2+]i): all transfected cells responded
MrgprA1 [10]; FMRF 2 μM
  [Ca2+]i response of MrgprA1-electroporated mutant neurons: strong response

## NPFF: mammalian neuropeptide FF, peptide agonist of MrgprA4
MrgprA4
  response of MrgprA4-expressing cells: respond
